In patent US20240294476A1, “CRYSTAL FORM OF QUINOLINE COMPOUND AND PROCESS FOR ITS PRODUCTION” (NISSAN CHEMICAL CORPORATION, priority 2003, published 2024):

Columns and labels:
[1] = Crystallinity by powder X-ray diffraction after drying; type: physicochemical; conditions: dried in a usual manner, water content at most 4%
Source text: (§1) However, in the conventional method for producing pitavastatin calcium, there has been no disclosure relating to the water content or the crystal form.

[2] = Stability data of drug substance (influence of water content), storage at 40° C.; type: physicochemical
Source text: as §1

[3] = 40° C. air tight, Initial stage

Q: Which “crystallinity (powder X-ray diffraction)” value [1] does the source give for `O=C(O)C[C@H](O)C[C@H](O)/C=C/c1c(C2CC2)nc2ccccc2c1-c1ccc(F)cc1` [Pitavastatin calcium, monocalcium bis[(3R,5S,6E)-7-(2-cyclopropyl-4-(4-fluorophenyl)-3-quinolyl)-3,5-dihydroxy-6-heptenoate]] here?
A: decrease to a state close to an amorphous state

Q: And the “Analogous substance (%)” value ([2]; 40° C. air tight, 30 Days)?
A: 0.208%

Q: What about the “Pitavastatin calcium (%)” value ([2]; 40° C. air tight, 30 Days) of the same compound?
A: 99.42%

Q: And the “Water content (%)” value ([2]; 40° C. air tight, 30 Days)?
A: 7.85%

Q: What about the “Analogous substance (%)” value ([2]; 40° C. air tight, 60 Days) of the same compound?
A: 0.189%

Q: What about the “Pitavastatin calcium (%)” value ([2]; 40° C. air tight, 60 Days) of the same compound?
A: 99.79%

Q: What about the “Water content (%)” value ([2]; 40° C. air tight, 60 Days) of the same compound?
A: 7.88%

Q: And the “Analogous substance (%)” value ([2]; 40° C. air tight, 90 Days)?
A: 0.211%

Q: And the “Pitavastatin calcium (%)” value ([2]; 40° C. air tight, 90 Days)?
A: 99.64%

Q: And the “Water content (%)” value ([2]; 40° C. air tight, 90 Days)?
A: 7.81%

Q: What about the “Analogous substance (%)” value [2, 3] of the same compound?
A: 0.179%

Q: And the “Pitavastatin calcium (%)” value [2, 3]?
A: 99.38%

Q: What about the “Water content (%)” value [2, 3] of the same compound?
A: 7.89%

Q: What about the “Analogous substance (%)” value ([2]; 40° C. open air, 30 Days) of the same compound?
A: 0.742%

Q: What about the “Pitavastatin calcium (%)” value ([2]; 40° C. open air, 30 Days) of the same compound?
A: 99.26%

Q: What about the “Water content (%)” value ([2]; 40° C. open air, 30 Days) of the same compound?
A: 2.45%

Q: What about the “Analogous substance (%)” value ([2]; 40° C. open air, 60 Days) of the same compound?
A: 1.347%

Q: And the “Pitavastatin calcium (%)” value ([2]; 40° C. open air, 60 Days)?
A: 97.19%

Q: What about the “Water content (%)” value ([2]; 40° C. open air, 60 Days) of the same compound?
A: 1.99%

Q: What about the “Analogous substance (%)” value ([2]; 40° C. open air, 90 Days) of the same compound?
A: 2.099%

Q: What about the “Pitavastatin calcium (%)” value ([2]; 40° C. open air, 90 Days) of the same compound?
A: 96.49%

Q: What about the “Water content (%)” value ([2]; 40° C. open air, 90 Days) of the same compound?
A: 1.77%

Q: What about the “Analogous substance (%)” value ([2]; 40° C. open air, Initial stage) of the same compound?
A: 0.179%

Q: What about the “Pitavastatin calcium (%)” value ([2]; 40° C. open air, Initial stage) of the same compound?
A: 99.38%

Q: What about the “Water content (%)” value ([2]; 40° C. open air, Initial stage) of the same compound?
A: 7.89%

Q: What about the “stability during the storage” value ([2]; pitavastatin calcium which has become amorphous) of the same compound?
A: very poor stability
